Source: patent US9636317B2, “Compositions and methods of use of phorbol esters” (priority 2007, dated 2017)
Several values for one entry are separate records, joined by “and”; a condition that tells them apart may be missing. Identical values can stand only once. Entries after “also recorded” stand apart in the source; their conditions may differ.

Experiments:
primary AML cells = assay: Primary AML cultures ex vivo: cell viability, apoptosis assays and Western analysis of ERK; format: cell-based, human
Description: In addition to protein kinase C and ERK activation, TPA is a known inducer of NF-κB, a pro-survival transcription factor often constitutively active in AML blasts and leukemic stem cells.

[1] = Treatment of prostate hypertrophy (patient case); format: in vivo, human
Protocol: Patient eight, diagnosed with prostate hypertrophy. They were injected with 1 ampoule containing 0.19 mg of TPA (0.125 mg/m^2) every other day for four weeks, then 0.24 mg of TPA (1.25×0.125 mg/m^2) every other day for 2 weeks, and 0.26 mg of TPA (1.5×0.125 mg/m^2) every other day for an additional 3 weeks. Their PSA index is now below 3.0.

[2] = Treatment of individuals who have suffered a stroke (patient cases); format: in vivo, human
Protocol: Patient seven, suffered a stroke eighteen months prior to treatment with TPA. At the time TPA treatment was initiated, they were unable to walk without a cane, had difficulty with both their left hand and left leg and was tired and weak. They received injections of 1 ampoule containing 0.19 mg of TPA (0.125 mg/m^2) every other day for four weeks, then 0.24 mg of TPA (1.25×0.125 mg/m^2) every other day for 2 weeks, and then 0.26 mg of TPA (1.5×0.125 mg/m^2) every other day for an additional 3 weeks.
Patient four, suffered a stroke seven years prior to beginning treatment with TPA. They received 3-4 injections of 0.19 mg of TPA (0.125 mg/m^2) per week for ten weeks for a total of 35 injections.

[3] = Third clinical study of HIV+ patients: periphery blood profile; format: in vivo, human; details: one value per patient
Protocol: (§1) Each patient in the study received 150 μg of TPA in 200 ml of sterile saline by intravenous infusion over a 1.5 to 2 hour period daily for 60 days for a total administered dose of 9.0 mg. Following completion of the 60 days of TPA therapy, these patients remained under observation for an additional 60 days though the received no further treatment.
CD3, CD4 and CD8 levels in peripheral blood were quantitated prior to starting treatment, and again at 30 and 60 days using flow cytometry and the appropriate antibodies obtained from B.D. Bioscience, San Diego, Calif. Viral load was determined using conventional methods at Kuang Ann men Hospital, Beijing, China. Patients RBC, WBC, platelets and hemoglobin levels were also measured. […]

[4] = Treatment of carpal tunnel syndrome (patient case); format: in vivo, human
Description: Patient with burning, tingling, pain and numbness in their fingers.

HIV = assay: First clinical study of HIV+ patients: blood HIV count; format: in vivo
Protocol: Twelve symptomatic patients (five males and seven females) between the ages of 35 to 52 all of whom were infected with HIV in 1995 through blood transfusion and were refractory to standard treatments for HIV were treated with TPA. Each patient was administered a weight adjusted dosage of TPA (75 μg/sq m) in 200 ml of sterile saline by i.v. over one hour. This dose was administered once daily for the first three days of treatment. Each patient was then given this dose every other day for days 4 to 18 followed by a six month rest period prior to a second course of treatment according to the same protocol.

[5] = test system: CD3, CD4 and CD8 levels in peripheral blood; assay: Third clinical study of HIV+ patients: CD3, CD4, CD8 by flow cytometry; format: in vivo, human; parameters: unit not given here; details: one value per patient
Protocol: (§2) Six patients, two males and four females between the ages of 37 and 52 years of age (Patients #13-18), were treated with TPA. Four of these patients previously received TPA treatment in combination with anti-HIV drugs in the two previous clinical studies. The two remaining patients had never been treated with TPA, but had previously received anti-HIV drug regimens. All treatments were stopped three days prior to the initiation of the third clinical study and were not resumed until 60 days after completion of the TPA treatment. The resumption of the standard HIV treatments was required by local health authorities.
as §1
CD3, CD4 and CD8 levels in peripheral blood were quantitated prior to starting treatment, and again at 30 and 60 days using flow cytometry and the appropriate antibodies obtained from B.D. Bioscience, San Diego, Calif. Viral load was determined using conventional methods at Kuang Ann men Hospital, Beijing, China. Patients RBC, WBC, platelets and hemoglobin levels were also measured.

HIV patients = assay: Third clinical study of HIV+ patients: symptoms and side effects (incl. case studies); format: in vivo, human
Protocol: as §2, §1
Results of treatment of initially symptomatic AIDS patients treated with TPA according to the protocols of Example III, IV, and V. Patients who participated in multiple studies are in some cases identified by more than one patient number. All patient identification numbers correspond to the patient numbers in Tables 1-7.

metastatic liver cancer = assay: Treatment of liver cancer (patient case); format: in vivo, human; details: three injections of 0.19 mg TPA; before 50,000+
Description: Patient X, age ? was diagnosed with metastatic liver cancer. Their initial alpha fetoprotein level was 48,813. They were given chemotherapy and radiation treatments but their alpha fetoprotein level remained elevated at 50,000+.

[6] = 15th day during TPA (patient 07)
[7] = 4 days after initial TPA, one value per patient
[8] = 15 days after initial TPA, one value per patient
[9] = 25 days after initial TPA, one value per patient

CCCCCCCCCCCCCC(=O)O[C@@H]1[C@@H](C)[C@@]2(O)[C@@H](C=C(CO)C[C@]3(O)C(=O)C(C)=C[C@@H]23)[C@@H]2C(C)(C)[C@]12OC(C)=O [TPA, 12-O-tetradecanoylphorbol-13-acetate]
cytotoxic effect (cell viability and apoptosis assays) (primary AML cells; AML cases): direct therapeutic cytotoxic effects in at least a subset of AML cases | phospho-ERK pro-survival signal (primary AML cells; after 24 hour ex vivo exposure): loss of the phospho-ERK pro-survival signal | ERK phosphorylation (Western analysis) (primary AML cells; all primary cultures analyzed, by 1 hour in culture): strongly induced ERK phosphorylation | PSA index ([1]; 0.19, 0.24, 0.26 mg TPA every other day over 9 weeks): below 3.0 | appearance ([1]; same patient): developed a more youthful appearance | recovery after stroke ([2]; stroke eighteen months before, 0.19, 0.24, 0.26 mg TPA every other day over 9 weeks): recovered fully | mobility in their face ([2]; stroke seven years before, 35 injections of 0.19 mg TPA): regained mobility in their face | improvement in the mobility of their right side ([2]; stroke seven years before, 35 injections of 0.19 mg TPA in ten weeks): 80% | PLt ([3]; Fifteen Days After TPA): 1.69e+11 L⁻¹ and 2.19e+11 L⁻¹ and 4.15e+11 L⁻¹ and 1.51e+11 L⁻¹ and 2.08e+11 L⁻¹ and 2.4e+11 L⁻¹ | RBC ([3]; Fifteen Days After TPA): 4.03e+12 L⁻¹ and 3.41e+12 L⁻¹ and 3.65e+12 L⁻¹ and 2.98e+12 L⁻¹ and 3.69e+12 L⁻¹ and 3.88e+12 L⁻¹ | Rb ([3]; Fifteen Days After TPA): 114 g/L and 101 g/L and 142 g/L and 118 g/L and 141 g/L and 140 g/L | WBC ([3]; Fifteen Days After TPA): 4.1 ×10^9/L and 5 ×10^9/L and 8.1 ×10^9/L (2×) and 6.4 ×10^9/L and 9 ×10^9/L | PLt ([3]; Forty Days After TPA): 3.04e+11 L⁻¹ and 1.52e+11 L⁻¹ and 2.62e+11 L⁻¹ and 2.91e+11 L⁻¹ and 1.31e+11 L⁻¹ and 1.49e+11 L⁻¹ | RBC ([3]; Forty Days After TPA): 3.9e+12 L⁻¹ and 4.44e+12 L⁻¹ and 4.13e+12 L⁻¹ and 3.86e+12 L⁻¹ and 3.49e+12 L⁻¹ and 4.14e+12 L⁻¹ | Rb ([3]; Forty Days After TPA): 125 g/L and 109 g/L and 110 g/L and 124 g/L and 116 g/L and 131 g/L | WBC ([3]; Forty Days After TPA): 4.6 ×10^9/L (2×) and 3.9 ×10^9/L (2×) and 6.2 ×10^9/L and 4.9 ×10^9/L | PLt ([3]; Sixty Days After TPA): 2.21e+11 L⁻¹ and 2.27e+11 L⁻¹ and 2.39e+11 L⁻¹ and 2.76e+11 L⁻¹ and 1.21e+11 L⁻¹ and 2.22e+11 L⁻¹ | RBC ([3]; Sixty Days After TPA): 4.55e+12 L⁻¹ and 4.31e+12 L⁻¹ and 4.04e+12 L⁻¹ and 4.1e+12 L⁻¹ and 3.34e+12 L⁻¹ and 4.56e+12 L⁻¹ | Rb ([3]; Sixty Days After TPA): 126 g/L and 96 g/L and 99 g/L (2×) and 123 g/L and 136 g/L | WBC ([3]; Sixty Days After TPA): 8.8e+09 L⁻¹ and 4.4e+09 L⁻¹ and 6.2e+09 L⁻¹ and 5.1e+09 L⁻¹ and 7.7e+09 L⁻¹ and 3.5e+09 L⁻¹ | PLt ([3]; Thirty Days After Stopping TPA): 2.72e+11 L⁻¹ and 1.93e+11 L⁻¹ and 2.78e+11 L⁻¹ and 2.24e+11 L⁻¹ and 1.78e+11 L⁻¹ | RBC ([3]; Thirty Days After Stopping TPA): 4.55e+12 L⁻¹ and 4.4e+12 L⁻¹ and 3.9e+12 L⁻¹ and 4.71e+12 L⁻¹ and 3.42e+12 L⁻¹ | Rb ([3]; Thirty Days After Stopping TPA): 130 g/L and 104 g/L and 110 g/L and 144 g/L and 100 g/L | WBC ([3]; Thirty Days After Stopping TPA): 7.5e+09 L⁻¹ and 6.5e+09 L⁻¹ and 8.4e+09 L⁻¹ and 3.8e+09 L⁻¹ and 4.8e+09 L⁻¹ | PLt ([3]; Thirty Days After TPA): 2.32e+11 L⁻¹ and 2.47e+11 L⁻¹ and 3.45e+11 L⁻¹ and 1.77e+11 L⁻¹ and 2.28e+11 L⁻¹ and 2.75e+11 L⁻¹ | RBC ([3]; Thirty Days After TPA): 4.48e+12 L⁻¹ and 3.83e+12 L⁻¹ and 4.03e+12 L⁻¹ and 3.2e+12 L⁻¹ and 4.32e+12 L⁻¹ and 4.35e+12 L⁻¹ | Rb ([3]; Thirty Days After TPA): 116 g/L and 113 g/L and 145 g/L and 121 g/L and 154 g/L and 148 g/L | WBC ([3]; Thirty Days After TPA): 5.9e+09 L⁻¹ and 5.2e+09 L⁻¹ and 4.3e+09 L⁻¹ and 4e+09 L⁻¹ and 4.5e+09 L⁻¹ and 8.9e+09 L⁻¹ | use of hands [4]: regained full use of their hands | BLOOD HIV COUNT LOG VALUE (HIV; [6]): 4.988 | BLOOD HIV COUNT RESULTS (HIV; [6]): 9.74 × 10^4 copies/ml | BLOOD HIV COUNT LOG VALUE (HIV; [7]): 6.899 and 4.910 and 7.243 and 5.974 and 4.160 and 5.179 and 5.959 and 6.151 | BLOOD HIV COUNT RESULTS (HIV; [7]): 7.92 × 10^6 copies/ml and 8.13 × 10^4 copies/ml and 1.75 × 10^7 copies/ml and 9.42 × 10^5 copies/ml and 1.44 × 10^4 copies/ml and 1.51 × 10^5 copies/ml and 9.09 × 10^5 copies/ml and 1.41 × 10^4 copies/ml | BLOOD HIV COUNT LOG VALUE (HIV; 7 days after TPA (patient 06)): 6.357 | BLOOD HIV COUNT RESULTS (HIV; 7 days after TPA (patient 06)): 2.28 × 10^6 copies/ml | BLOOD HIV COUNT LOG VALUE (HIV; [8]): 4.306 and 6.801 and 3.786 and 6.614 and 7.369 and 5.274 and 6.737 | BLOOD HIV COUNT RESULTS (HIV; [8]): 2.02 × 10^4 copies/ml and 6.33 × 10^6 copies/ml and 6.11 × 10^3 copies/ml and 1.11 × 10^6 copies/ml and 2.34 × 10^7 copies/ml and 1.88 × 10^5 copies/ml and 5.46 × 10^6 copies/ml | BLOOD HIV COUNT LOG VALUE (HIV; [9]): 4.416 and 6.941 and 5.934 and 4.084 and 6.745 and 3.724 and 6.890 | BLOOD HIV COUNT RESULTS (HIV; [9]): 2.60 × 10^4 copies/ml and 8.72 × 10^6 copies/ml and 8.59 × 10^5 copies/ml and 1.21 × 10^4 copies/ml and 5.56 × 10^6 copies/ml and 5.30 × 10^3 copies/ml and 7.77 × 10^6 copies/ml and undetectable | BLOOD HIV COUNT LOG VALUE (HIV; 25 days after initial TPA, sample taken from the second cycle treatment (patients 10-12)): 4.446 and 5.096 and 3.798 | change of viral load (summary of Table 2) (HIV; twelve patients): five patients having an increase in HIV and no change or a reduction in seven others | CD3 ([5]; Sixty Days After TPA): 902 and 2099 and 1305 and 317 and 579 and 2689 | CD4 ([5]; Sixty Days After TPA): 369 and 11 and 46 and 31 and 165 and 721 | CD8 ([5]; Sixty Days After TPA): 485 and 1507 and 1220 and 246 and 290 and 1897 | CD3 ([5]; Thirty Days After TPA, 150 μg i.v. daily for 60 days): 1522 and 1865 and 1477 and 594 and 703 and 2771 | CD4 ([5]; Thirty Days After TPA): 613 and 8 and 105 and 112 and 229 and 735 | CD8 ([5]; Thirty Days After TPA): 796 and 1408 and 1318 and 424 and 343 and 1938 | recurrence of AIDS symptoms (HIV patients; 120 day observation and treatment period): no recurrence of AIDS symptoms | side effects of TPA treatment (individual patient) (HIV patients; protocol of Example V): local irritation due to a leaking needle; also recorded: a fever on one occasion; also recorded: skin irritation from a leaking needle; also recorded: no side effects | AIDS symptoms during and after treatment (individual patient) (HIV patients; protocol of Example V, antiviral therapy stopped): No AIDS symptoms returned; also recorded: remains symptom free; also recorded: No AIDS symptoms occurred | fever during TPA infusion (HIV patients; protocol of Example V, individual patients): 38-38.5 °C and 38-39 °C | alpha fetoprotein levels (metastatic liver cancer): returned to normal levels within four months
